Measurements: patent US7511123B2, “Immuno-interactive fragments of the alpha-C subunit of inhibin” (Prince Henry's Institute of Medical Research, priority 1999, dated 2009)

Assays:
As #128 = assay: RIA (Assay 2): competition with iodinated inhibin for As #128; type: binding, sheep
Procedure, shortened: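 Graded doses of peptide or hr-inhibin standard competed with iodinated human recombinant 30 kDa inhibin tracer for the sheep antiserum at a set dilution, overnight at 4°C. Bound tracer was precipitated with goat anti-sheep IgG and gamma-counted. ED50 is the dose producing 50% loss of tracer binding.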

As#128 and/or As#41 = assay: Inhibin IFMA with pre-immunoabsorption of antisera by peptides; type: binding, sheep
Text: This IFMA is used in the measurement of inhibin in serum from women with ovarian cancer and is presented at this juncture as a reference to the following procedures. The IFMA is a sandwich antibody assay in 96-well microtiter plates. The capture antiserum is As #128 and the labeled antiserum As #41, both raised in sheep to the alpha subunit of human inhibin. Sheep As #128 was also boosted with human recombinant 30-kDa inhibin. The microtiter plates were coated with a caprylic acid IgG cut of antiserum #128. Inhibin standard and serum samples were added and incubated for 2 hours at room temperature. A biotinylated antiserum (As #41) which has been immunopurified by absorption to a column of bovine (alpha)C subunit fusion protein (as previously described, Robertson et al., 1997, supra) followed by elution with a glycine (pH 2.5) buffer, was added to bind to the antibody-bound inhibin (2-hour incubation at room temperature). Fluorescently (Eu) labeled-streptavidin that has a high affinity for biotin is added (30 minutes at room temperature) and the Eu-bound streptavidin is counted in a time-resolved fluorimeter. The Eu measured is proportional to the inhibin bound by the two antisera.
As another approach, the competition of combinations of peptides at a maximum saturating dose was assessed in the IFMA (FIGS. 7-9). […] This suppression in binding provides a measure of the contribution of that particular epitope to the assay.

## SGSG WSPSALRLLQRPPE [Peptide 5]
As #128; biotinylated peptides, 50% fall in binding of iodinated inhibin
  As#128 ED50: 3.8 µM
As #128; non-biotinylated peptides, hr-inhibin A as standard
  ED50 values As#128: >10 µM
As#128 and/or As#41; As#41 label pre-absorbed with peptide, As#128 coating antibody: buffer
  % suppression at 2ng inhibin: 67%
As#128 and/or As#41; As#128 coating antibody pre-absorbed with peptide(s), As#41 label: buffer
  % suppression at 2ng inhibin: 55%
As#128 and/or As#41; both antisera pre-absorbed, label gives peptide(s) on As#128 coating first, then on As#41 label
  % suppression at 2ng inhibin: 73%
